Reference: US20070082883A1, “HIV protease inhibitors” (THE BOARD OF TRUSTEES OF THE UNIVERSITY OF ILLINOIS, priority 2002, published 2007)

target: T1, HIV-1 protease (Human immunodeficiency virus type 1 group M subtype B, UniProt P04585); experiment: HIV-1 Protease Inhibition Assay; format: biochemical; conditions: fluorogenic substrate assay
T1 construct: made in house; host or cells: E. coli BL21 (dE3)pLysS, pET30a vector
Description: Assays of the dose-response effect of inhibitor compounds can be described as a curve expressing a degree of inhibition as a function of concentration. The curve theoretically passes through a point at which the concentration is sufficient to reduce activity of the HIV protease enzyme to a level that is 50% that of the difference between minimal and maximal enzyme activity in the assay.
HIV-1 Protease Inhibition Assay
The HIV-1 protease gene was subcloned into the pET30a vector (Novagen) and then transformed into BL21 (dE3)pLysS cells for protein expression. Protein expression and purification were followed according to Tang's procedure (Hong et al., Biochemistry, 1996, 35, 10627-10633). […] The inclusion body containing some bacterial proteins was thoroughly washed by using TRITON X-100, solubilized in […] and passed through the Q-sepharose column to remove the bacterial proteins which interfered with subsequent refolding steps. HIV-1 protease was refolded from the urea to an active form by dialysis. As a final step, gel filtration chromatography was used to remove impurities after refolding. Activities of purified HIV-1 protease were examined using a fluorogenic substrate, 2-aminobenzoyl-Thr-Ile-Nle-Phe(pNO2)-Gln-Arg-NH2 (Novabiochem). […] In the condition of So<<Km, v=Eo(kcat/Km)So, where Eo is the total enzyme concentration, and So is the substrate concentrate. […] Assays are carried out as described by Toth and Marshall (Toth et al., Int. J. Pept. Protein Res., 1990, 36, 544-50).

SMILES	IC50	Ki
CC(C)CN(C[C@@H](O)[C@H](Cc1ccccc1)NC(=O)O[C@H]1CCOC1)S(=O)(=O)c1ccc(CN2CCN(C)CC2)cc1 [Compound 138]	270 nM	–
O=C(N[C@@H](Cc1ccccc1)[C@H](O)CN1CCCC/C=C\CCOc2cccc(c2)S1(=O)=O)O[C@H]1CO[C@H]2OCCC21 (stereo partly shown) [Compound 233]	8.7 nM	2.7 nM
CC(C)(C)OC(=O)NN(C[C@@H](O)[C@H](Cc1ccccc1)NC(=O)O[C@@H]1CC2CCO[C@@H]2C1)S(=O)(=O)c1ccc(F)c(N)c1 (stereo partly shown) [Compound 191]	9.6 nM	3 nM
Cc1ccc(S(=O)(=O)OCc2ccc(S(=O)(=O)N(CC(C)C)C[C@@H](O)[C@H](Cc3ccccc3)NC(=O)OC3CO[C@H]4OCCC34)cc2)cc1 (stereo partly shown) [Compound 117]	2.4 nM	0.74 nM
Cc1ccc(S(=O)(=O)N(CCN(C)C)C[C@@H](O)[C@H](Cc2ccccc2)NC(=O)OC2CO[C@H]3OCCC23)cc1CO (stereo partly shown) [Compound 158]	105 nM	32 nM
CC(C)CN(C[C@@H](O)[C@H](Cc1ccccc1)NC(=O)O[C@H]1C[C@H]2CCO[C@H]2C1)S(=O)(=O)c1cncc([N+](=O)[O-])c1 [Compound 171]	14 nM	4.3 nM
COc1ccc(S(=O)(=O)N(C[C@@H](O)[C@H](Cc2ccccc2)NC(=O)O[C@@H]2CO[C@@H]3OCC[C@@H]32)C2CN(C)C2)cc1 [Compound 202]	31 nM	9.7 nM
CC(C)CN(C[C@@H](O)[C@H](Cc1ccccc1)NC(=O)O[C@@H]1CC2CCO[C@@H]2C1)S(=O)(=O)c1ccc(O)c(O)c1 (stereo partly shown) [Compound 258]	3.9 nM	–
O=C(N[C@@H](Cc1ccccc1)[C@H](O)CN(CCN1CCOCC1)S(=O)(=O)c1ccc(Cl)c(O)c1)OC1CC2CCO[C@@H]2C1 (stereo partly shown) [Compound 155]	16 nM	4.9 nM
COc1ccc(S(=O)(=O)N(CC(C)C)C[C@@H](O)C(Cc2ccccc2)NC(=O)O[C@H]2CO[C@@H]3OCCC[C@@H]32)cc1 (stereo partly shown) [Compound 253]	1 nM	–
CC(C)CN(C[C@@H](O)[C@H](Cc1ccccc1)NC(=O)OC1CO[C@H]2OCC[C@@H]12)C1CC2(CCCC2)NC1=O (stereo partly shown) [Compound 270]	6.4 nM	–
C=CCCCCN(C[C@@H](O)[C@H](Cc1ccccc1)NC(=O)O[C@@H]1CC2CCO[C@@H]2C1)S(=O)(=O)c1cccc(OCC=C)c1 (stereo partly shown) [Compound 225f]	11 nM	3.4 nM
Cc1ccc(S(=O)(=O)N(CC(C)C)C[C@@H](O)[C@H](Cc2ccccc2)NC(=O)OC2CC3CCO[C@@H]3C2)cc1 (stereo partly shown) [Compound 131]	1.4 nM	–
C=CCCCCOc1cccc(S(=O)(=O)N(CCCCC=C)C[C@@H](O)[C@H](Cc2ccccc2)NC(=O)O[C@H]2CO[C@H]3OCCC32)c1 (stereo partly shown) [Compound 225c]	8.5 nM	2.6 nM
O=C1CC[C@H](CN(C[C@@H](O)[C@H](Cc2ccccc2)NC(=O)OC2CO[C@H]3OCC[C@@H]23)S(=O)(=O)c2ccc([N+](=O)[O-])cc2)N1 (stereo partly shown) [Compound 274]	0.1 nM	–
CC(C)CN(C[C@@H](O)[C@H](Cc1ccccc1)NC(=O)O[C@H]1CCOC1)S(=O)(=O)c1ccc(F)c([N+](=O)[O-])c1 [Compound 181]	145 nM	45 nM
CC(C)CN(C[C@@H](O)[C@H](Cc1ccccc1)NC(=O)O[C@H]1CCOC1)S(=O)(=O)c1ccc(Cl)c(O)c1 [Compound 153]	3.6 nM	1.1 nM
COc1ccc(S(=O)(=O)N(C[C@@H](O)[C@H](Cc2ccccc2)NC(=O)O[C@H]2CO[C@H]3OCCC32)NC(=O)OC(C)(C)C)cc1 (stereo partly shown) [Compound 188]	3.9 nM	1.2 nM
COc1ccc(S(=O)(=O)N(CC(C)C)C[C@@H](O)[C@H](Cc2ccc(O)cc2)NC(=O)O[C@H]2CO[C@H]3OCCC32)cc1 (stereo partly shown) [Compound 213]	4.1 nM	1.3 nM
O=C(N[C@@H](Cc1ccccc1)[C@H](O)CN1CCCCCCCCCCOc2cccc(c2)S1(=O)=O)O[C@@H]1CC2CCO[C@@H]2C1 (stereo partly shown) [Compound 236]	11 nM	3.4 nM
CC(C)CN(C[C@@H](O)[C@H](Cc1ccccc1)NC(=O)OC1CC2CCO[C@@H]2C1)S(=O)(=O)c1cccc(C=NO)c1 (stereo partly shown) [Compound 129]	2.9 nM	0.9 nM
CC(C)(C)NC(=O)[C@@H]1C[C@@H]2CCCC[C@@H]2CN1C[C@@H](O)[C@H](Cc1ccccc1)NC(=O)O[C@H]1CCC2(CCCO2)C1 (stereo partly shown) [Compound 145a]	500 nM	–
CC(C)CN(C[C@@H](O)[C@H](Cc1ccccc1)NC(=O)OC1CC2CCO[C@@H]2C1)S(=O)(=O)c1cccc(O)c1 (stereo partly shown) [Compound 79]	5.5 nM	1.7 nM

SMILES	IC50	Ki
CC(C)CN(C[C@@H](O)[C@H](Cc1ccccc1)NC(=O)OC1CC2CCO[C@@H]2C1)S(=O)(=O)c1ccc(C=NO)cc1 (stereo partly shown) [Compound 128]	1.7 nM	0.53 nM
CC(C)CN(C[C@@H](O)[C@H](Cc1ccccc1)NC(=O)OC1CO[C@H]2OCCC12)S(=O)(=O)c1cncc(N)c1 (stereo partly shown) [Compound 166]	0.91 nM	0.28 nM
CC(C)CN(C[C@@H](O)[C@H](Cc1ccccc1)NC(=O)OC1CO[C@H]2OCC[C@@H]12)C1CC(C)(C)NC1=O (stereo partly shown) [Compound 269]	3.4 nM	–
COc1ccc(S(=O)(=O)N(C[C@H]2CCC(=O)N2)C[C@@H](O)[C@H](Cc2ccccc2)NC(=O)OC2CC[C@H]3OCC[C@@H]23)cc1 (stereo partly shown) [Compound 277]	0.1 nM	–
COc1ccc(S(=O)(=O)NN(CC(C)C)C[C@@H](O)[C@H](Cc2ccccc2)NC(=O)O[C@H]2CO[C@H]3OCCC32)cc1 (stereo partly shown) [Compound 185]	312 nM	97 nM
CC(C)CN(C[C@@H](O)[C@H](Cc1ccccc1)NC(=O)O[C@H]1CO[C@H]2OCC[C@H]21)[C@H]1CCNC1=O [Compound 249]	–	37 nM
COc1ccc(S(=O)(=O)N(C[C@H]2CCC(=O)N2)C[C@@H](O)[C@H](Cc2ccccc2)NC(=O)OC(C)(C)C)cc1 [Compound 271, ((1S)-Benzyl-(2R)-hydroxy-3-[(4-methoxybenzene-sulfonyl)-(5-oxopyrrolidin-(2R)-ylmethyl)amino]-propyl)carbamic acid tert-butyl ester]	3 nM	–
CC(C)CN(C[C@@H](O)[C@H](Cc1ccccc1)NC(=O)OC(C)(C)C)S(=O)(=O)c1ccc(CN2CCN(C)CC2)cc1 [Compound 137]	2100 nM	–
COc1ccc(S(=O)(=O)N(C[C@@H](O)[C@H](Cc2ccccc2)NC(=O)O[C@H]2CO[C@H]3OCCC32)C2CN(C)C2)cc1 (stereo partly shown) [Compound 201]	5.6 nM	1.7 nM
Cc1ccc(S(=O)(=O)N(C[C@@H](O)[C@H](Cc2ccccc2)NC(=O)OC2CC3CCO[C@@H]3C2)C2CCOC2)cc1CO (stereo partly shown) [Compound 162]	4.1 nM	1.3 nM
COc1ccc(S(=O)(=O)N(CC(C)C)C[C@@H](O)[C@H](Cc2ccccc2)NC(=O)O[C@H]2CC[C@]3(CCCO3)C2)cc1 [Compound 145d]	4.6 nM	–
CC(C)CN(C[C@@H](O)[C@H](Cc1ccccc1)NC(=O)OC1CC2CCO[C@@H]2C1)S(=O)(=O)c1cccc2cccnc12 (stereo partly shown) [Compound 132]	12 nM	3.7 nM
O=C(N[C@@H](Cc1ccccc1)[C@H](O)CN1CCCCCCCC(O)c2cccc(c2)S1(=O)=O)O[C@@H]1CC2CCO[C@@H]2C1 (stereo partly shown) [Compound 238]	4 nM	1.2 nM
C=CCCCCN(C[C@@H](O)[C@H](Cc1ccccc1)NC(=O)O[C@H]1CO[C@H]2OCCC21)S(=O)(=O)c1cccc(OCCC=C)c1 (stereo partly shown) [Compound 232]	5.4 nM	1.7 nM
CC(C)CN(C[C@@H](O)[C@H](Cc1ccccc1)NC(=O)OC1CO[C@H]2OCCC12)S(=O)(=O)c1cncc([N+](=O)[O-])c1 (stereo partly shown) [Compound 165]	3.5 nM	1 nM
Cc1c(O)cccc1C(=O)N[C@@H](Cc1ccccc1)[C@H](O)CN(CC(C)C)S(=O)(=O)c1ccc(F)c(N)c1 [Compound 183]	179 nM	56 nM
COc1ccc(S(=O)(=O)N(CC(C)C)C[C@H](O)[C@H](Cc2ccc(OCc3ccccc3)cc2)NC(=O)O[C@H]2CO[C@H]3OCCC32)cc1 (stereo partly shown) [Compound 211]	90 nM	28 nM
CC(C)(C)NC(=O)[C@@H]1C[C@@H]2CCCC[C@@H]2CN1C[C@@H](O)[C@H](Cc1ccccc1)NC(=O)OC1CC2CCO[C@@H]2C1 (stereo partly shown) [Compound 143]	3 nM	–
CC(C)CN(C[C@@H](O)[C@H](Cc1ccccc1)NC(=O)OC1CC2CCO[C@@H]2C1)S(=O)(=O)c1cncc([N+](=O)[O-])c1 (stereo partly shown) [Compound 167]	4.5 nM	1.4 nM
CC(C)CN(C[C@@H](O)[C@H](Cc1ccccc1)NC(=O)O[C@@H]1CC2CCO[C@@H]2C1)S(=O)(=O)c1ccc(N)cc1 (stereo partly shown) [Compound 261]	2.2 nM	–
COc1ccc(S(=O)(=O)N(C[C@@H](O)[C@H](Cc2ccccc2)NC(=O)O[C@H]2C[C@H]3CCO[C@H]3C2)C2CN(C)C2)cc1 [Compound 205]	87 nM	27 nM
CC(C)CN(C[C@@H](O)[C@H](Cc1ccccc1)NC(=O)O[C@@H]1CC2CCO[C@@H]2C1)NS(=O)(=O)c1ccc(F)c([N+](=O)[O-])c1 (stereo partly shown) [Compound 184]	1200 nM	351 nM
CC(C)CN(C[C@H](O)C(Cc1ccccc1)NC(=O)O[C@@H]1C[C@@H]2CCO[C@@H]2C1)S(=O)(=O)c1ccc(CO)cc1 (stereo partly shown) [Compound 254]	1 nM	–
